This note sets out measurements from patent US10809268B2, “Methods and kits for measuring and quantifying DNA double-stranded breaks using gamma-H2AX and H2AX” (The United States of America, as represented by the …, priority 2015, dated 2020).

Where only a bound is given, the exact number is not on record here.

Assay [1] deals with γ-H2AX in HCT116 cells. The assay is described as follows: γ-H2AX detection by Western blot in treated HCT116 cell cultures. In kind it is cell-based, human. As for the experimental part:
(§1) Human […] cancer cell lines HCT 116 or MCF 7 (ATCC) were cultured with 10% fetal bovine serum at 37° C. in a 5% CO2 incubator. The cells were treated with the topoisomerase I inhibitor topotecan, the apoptosis-inducing biomolecule tumor necrosis factor (TNF)-related apoptosis-inducing ligand (TRAIL), or IR. The γ-H2AX immunoassay (γ-H2AX ELISA) was compared with γ-H2AX detection by both Western blot and immunofluorescence assay (IFA).
(§2) The ELISA detected changes in γ-H2AX in HCT116 cell cultures induced by a variety of treatments in vitro and was overall highly correlated to both IFA and Western blot following treatment with topotecan or TRAIL (Table 6).
For orientation: A western blot detects proteins with antibodies after separation by electrophoresis.

Assay [2] concerns γ-H2AX in HCT116 cells. Briefly: γ-H2AX immunoassay (γ-H2AX ELISA) in treated HCT116 cell cultures. In kind it is cell-based, human. As for the experimental part:
(§3) Pierce REACTI-BIND plates (96-well) (Thermo Scientific) were coated with anti-7-H2AX antibody (Millipore) diluted to a concentration of 4 μg/mL in 0.1 M pH 9.6 carbonate buffer (Sigma-Aldrich, St. Louis, Mo.), 100 μL/well, for 2 hours at 37° C. The γ-H2AX synthetic peptide standard or a whole-cell extract was added to each well and incubated for antigen capture overnight at 4° C. Plates were incubated with 100 μL/well of 2 μg/mL anti-histone H2AX rabbit polyclonal antibody (Abcam) diluted in 2% bovine serum albumin (BSA)/phosphate buffered saline (PBS) supplemented with 1 μL/mL mouse serum for 2 hours (h) at 24° C. Subsequently, 100 μL/well HRP-conjugated affinity-purified goat anti-rabbit (KPL) was added at a final concentration of 1 μg/mL diluted in 2% BSA/PBS, supplemented with 1 μL/mL mouse serum, and incubated for 1 hour at 24° C. Finally, 100 μL/well of freshly prepared SUPERSIGNAL ELISA Pico chemiluminescent substrate (Thermo Scientific, Waltham, Mass.) was added to the plate and immediately read on a TECAN INFINITE M200 plate reader (Tecan Group Ltr., Maennedorf, Switzerland). A standard curve was generated by plotting the RLU (relative light unit) values that were obtained for a range of concentrations of the γ-H2AX standard peptide (FIG. 1A). The average γ-H2AX concentration for each cell extract was then determined using the standard curve (FIG. 1B).
as §1, §2

Assay [3] deals with γ-H2AX in HCT116 cells. The assay is described as follows: γ-H2AX detection by immunofluorescence assay (IFA) in treated HCT116 cell cultures. In kind it is cell-based, human. As for the experimental part:
as §1, §2

The next assay has as its system MCF7 cells. The assay is described as follows: γ-H2AX and total H2AX immunoassays in MCF7 cells treated with SN38 and ATR inhibitors. In kind it is cell-based, human. The settings on record: SN38 0.25 μM plus ATRi 1 or 0.5 μM.
In the next assay the test system is A375 xenografts. Briefly: γ-H2AX and total H2AX immunoassays on cells from drug-treated A375 xenograft mouse models. The settings on record: A375 xenografts in vivo; PARPi given simultaneously or four hours before CPT-11.
The test system of another assay is HT29 cells. Briefly: Ratio of γ-H2AX to total H2AX in HT29 cells treated 1 hour in vitro. In kind it is cell-based, human. The method, then:
as §3, with “A standard curve was generated by plotting the RLU (relative light unit) values that were obtained for a range of concentrations of the γ-H2AX standard peptide (FIG. 1A).” left out
Pierce REACTI-BIND plates (96-well) were coated with total anti-H2A core protein HIST1H2AC monoclonal antibody (Novus, St. Charles, Mo.) diluted to a concentration of 4 μg/mL in 0.1 M pH 9.6 carbonate buffer (Sigma-Aldrich), 100 μL/well, for 2 hours at 37° C. […] Finally, 100 μL/well of freshly prepared SUPERSIGNAL ELISA Pico chemiluminescent substrate (Thermo Scientific) was added to the plate and immediately read on a TECAN INFINITE M200 plate reader. […] The average total H2AX concentration for each cell extract was then determined using the standard curve (FIG. 2B).
HT29 cells were treated with the genotoxic agent camptothecin (CPT) or the non-genotoxic agent rhomidepsin for 1 hour at a concentration of 0 (vehicle) 0.001, 0.001, 0.01, 1 or 10 μM. […] DNA DSB, as measured by the ratio of γ-H2AX to total H2AX, was detected with CPT treatment as low as 1 nM. […]

Assay [4] has as its system γ-H2AX in HT29 or MCF7 cells. The assay is described as follows: Microscope staining with labeled anti-γ-H2AX antibody (IFA) of cells treated as in Example 14. In kind it is cell-based, human. The settings on record: 10 nM, 100 nM, 1 μM and 10 μM CPT; intensity increased with concentration. From the text: The presence of γ-H2AX in the cells treated as described in Example 14 was confirmed by staining using a labeled anti-γ-H2AX antibody and observing the intensity of the staining through a microscope. […] The staining intensity increased as the concentration of CPT used to treat the cells increased.
The γ-H2AX in the cells treated as described in Example 14 was quantified by staining using a labeled anti-γ-H2AX antibody and measuring the intensity of the staining observed through a microscope (immunofluorescence microscope assay (IFA)). The quantity of γ-H2AX measured by staining intensity was compared to the ratio of γ-H2AX to total H2AX measured by the immunoassays (IA) of Examples 1 and 2. The results are shown in FIG. 18A (HT29) and FIG. 18B (MCF7).

The test system of assay [5] is tumors of the human breast carcinoma cell line MX1. Briefly: γ-H2AX and total H2AX immunoassays on tumor biopsies of drug-treated nude mice with MX1 tumors. In kind it is in vivo. As for the experimental part:
as §3, with “Subsequently, 100 μL/well HRP-conjugated affinity-purified goat anti-rabbit (KPL) was added at a final concentration of 1 μg/mL diluted in 2% BSA/PBS, supplemented with 1 μL/mL mouse serum, and incubated for 1 hour at 24° C.” left out, “A standard curve was generated by plotting the RLU (relative light unit) values that were obtained for a range of concentrations of the γ-H2AX standard peptide (FIG. 1A).” left out
Pierce REACTI-BIND plates (96-well) were coated with total anti-H2A core protein HIST1H2AC monoclonal antibody (Novus, St. Charles, Mo.) diluted to a concentration of 4 μg/mL in 0.1 M pH 9.6 carbonate buffer (Sigma-Aldrich), 100 μL/well, for 2 hours at 37° C. […] The average total H2AX concentration for each cell extract was then determined using the standard curve (FIG. 2B). […]

Method for A375 xenografts: Pierce REACTI-BIND plates (96-well) (Thermo Scientific) were coated with anti-7-H2AX antibody (Millipore) diluted to a concentration of 4 μg/mL in 0.1 M pH 9.6 carbonate buffer (Sigma-Aldrich, St. Louis, Mo.), 100 μL/well, for 2 hours at 37° C. The γ-H2AX synthetic peptide standard or a whole-cell extract was added to each well and incubated for antigen capture overnight at 4° C. Plates were incubated with 100 μL/well of 2 μg/mL anti-histone H2AX rabbit polyclonal antibody (Abcam) diluted in 2% bovine serum albumin (BSA)/phosphate buffered saline (PBS) supplemented with 1 μL/mL mouse serum for 2 hours (h) at 24° C. Subsequently, 100 μL/well HRP-conjugated affinity-purified goat anti-rabbit (KPL) was added at a final concentration of 1 μg/mL diluted in 2% BSA/PBS, supplemented with 1 μL/mL mouse serum, and incubated for 1 hour at 24° C. […] M200 plate reader (Tecan Group Ltr., Maennedorf, Switzerland). A standard curve was generated by plotting the RLU (relative light unit) values that were obtained for a range of concentrations of the γ-H2AX standard peptide (FIG. 1A). The average γ-H2AX concentration for each cell extract was then determined using the standard curve (FIG. 1B).
A375 xenograft mouse models were treated with vehicle (control), CPT-11 alone, a PARP inhibitor alone, a combination of CPT-11 and the PARP inhibitor (PARPi) administered simultaneously, or a combination of CPT-11 and the PARPi, wherein the PARPi is administered four hours before CPT-11 is administered. […] Cells from the treated mice were quantified for γ-H2AX and total H2AX using the immunoassays of Examples 1 and 2, respectively, and the ratio of γ-H2AX to total H2AX was determined.

Take `CC[C@@]1(O)C(=O)OCc2c1cc1n(c2=O)Cc2cc3c(CN(C)C)c(O)ccc3nc2-1` [Topotecan, topotecan]: the “γ-H2AX Western Blot” value in the assay with γ-H2AX in HCT116 cells [1] (Topotecan 1 μM, 0 hr) is listed as 4.7 RLU; with γ-H2AX in HCT116 cells [1] (Topotecan 1 μM, 1 hr), 8.1 RLU; in the assay on γ-H2AX in HCT116 cells [1] (Topotecan 1 μM, 3 hr), 6.9 RLU; in the assay on γ-H2AX in HCT116 cells [1] (Topotecan 1 μM, 6 hr) it was 14.3 RLU. In addition, the “γ-H2AX ELISA” value in the assay with γ-H2AX in HCT116 cells [2] (Topotecan 1 μM, 0 hr) is recorded as 124 pM; with γ-H2AX in HCT116 cells [2] (Topotecan 1 μM, 1 hr) it was 2536 pM; in the assay on γ-H2AX in HCT116 cells [2] (Topotecan 1 μM, 3 hr) it was 3134 pM; with γ-H2AX in HCT116 cells [2] (Topotecan 1 μM, 6 hr), 4793 pM. Besides, the “γ-H2AX IFA” value in the assay on γ-H2AX in HCT116 cells [3] (Topotecan 1 μM, 0 hr) turned out to be 0.7 RLU; with γ-H2AX in HCT116 cells [3] (Topotecan 1 μM, 1 hr), 23.0 RLU; with γ-H2AX in HCT116 cells [3] (Topotecan 1 μM, 3 hr), 43.9 RLU; in the assay on γ-H2AX in HCT116 cells [3] (Topotecan 1 μM, 6 hr) it was 51.2 RLU.

For `Nc1nc(N)c(N=O)c(OCC2CCCCC2)n1` [NU-6027], the “synergy for γ-H2AX induction in combination with the Top1 inhibitor SN38” value (“synergy … with the Top1 inhibitor SN38” for short) in the assay with MCF7 cells is reported as “none”.

Regarding `C[C@]1(c2nc3c(C(N)=O)cccc3[nH]2)CCCN1` [ABT-888], the “induction of γ-H2AX (DNA DSB) in combination with CPT-11” value (shortened to “induction of γ-H2AX (DNA DSB)”) in the assay on A375 xenografts is “synergistic induction of γ-H2AX”.

`C/C=C1\NC(=O)[C@H]2CSSCC/C=C/[C@H](CC(=O)N[C@H](C(C)C)C(=O)N2)OC(=O)[C@H](C(C)C)NC1=O` [rhomidepsin]: the “DNA DSB, as measured by the ratio of γ-H2AX to total H2AX” value with HT29 cells (1 hour, even at a concentration as high as 10 μM) is “no DNA DSB”.

Consider `CNCc1ccc(-c2cc(-c3nc(-c4ccc(S(=O)(=O)C(C)C)cc4)cnc3N)on2)cc1` [VE-822], for which the “synergy … with the Top1 inhibitor SN38” value with MCF7 cells is on record as “highest synergy”.

As for `CC[C@@]1(O)C(=O)OCc2c1cc1n(c2=O)Cc2cc3ccccc3nc2-1` [CPT, camptothecin], the “concentration at which DNA DSB, as measured by the ratio of γ-H2AX to total H2AX, was detected” value in the assay with HT29 cells (1 hour treatment) is at least 1 nM. The “concentration giving a detectable signal of DNA DSB (ratio of γ-H2AX to total H2AX)” value in the assay with HT29 cells (1 hour, with as few as 160 cells per assay) was at least 0.01 µM. The “staining with labeled anti-γ-H2AX antibody” value in assay [4] is recorded as “Staining was observed”.

In the case of `O=C(c1cc(Cc2n[nH]c(=O)c3ccccc23)ccc1F)N1CCN(C(=O)C2CC2)CC1` [AZD2281], the “γ-H2AX induction (ratio of γH2AX to total H2AX)” value in assay [5] (50 or 6.25 units AZD2281 IP in combination with irinotecan 7.5 units IV, particularly at 4 hours after administration) is on record as “induced substantially more γ-H2AX”. For the same molecule, in the assay with A375 xenografts, the “induction of γ-H2AX (DNA DSB)” value is reported as “synergistic induction of γ-H2AX”.

With `CCc1c2c(nc3ccc(OC(=O)N4CCC(N5CCCCC5)CC4)cc13)-c1cc3c(c(=O)n1C2)COC(=O)[C@]3(O)CC` [irinotecan], the “γ-H2AX induction (ratio of γH2AX to total H2AX)” value in assay [5] (irinotecan 7.5 units IV alone, MX1 tumor biopsies, nude mice) was “induced γ-H2AX modestly”.

On to `NC(=O)c1cccc2cn(-c3ccc([C@@H]4CCCNC4)cc3)nc12` [MK-4827], for which the “induction of γ-H2AX (DNA DSB)” value in the assay on A375 xenografts is given as “synergistic induction of γ-H2AX”.

`C[C@@H]1COCCN1c1cc(C2([S@](C)(=N)=O)CC2)nc(-c2cc[nH]c3nccc2-3)n1` [AZD-6738]: the “synergy … with the Top1 inhibitor SN38” value in the assay on MCF7 cells is “highest synergy”.

B1: TRAIL: apoptosis-inducing biomolecule tumor necrosis factor (TNF)-related apoptosis-inducing ligand (protein, UniProt P50591 1-281, looked up)
Tumor necrosis factor ligand …: MAMMEVQGGPSLGQTCVLIVIFTVLLQSLCVAVTYVYFTNELKQMQDKYSKSGIACFLKEDDSYWDPNDEESMNSPCWQVKWQLRQLVRKMILRTSEETISTVQEKQQNISPLVRERGPQRVAAHITGTRGRSNTLSSPNSKNEKALGRKINSWESSRSGHSFLSNLHLRNGELVIHEKGFYYIYSQTYFRFQEEIKENTKNDKQMVQYIYKYTSYPDPILLMKSARNSCWSKDAEYGLYSIYQGGIFELKENDRIFVSVTNEHLIDMDHEASFFGAFLVG
B1: the “γ-H2AX Western Blot” value in the assay with γ-H2AX in HCT116 cells [1] (TRAIL 0.1 μg/mL, 0 hr) came out at 2.7 RLU; in the assay on γ-H2AX in HCT116 cells [1] (TRAIL 0.1 μg/mL, 1 hr), 17.3 RLU; in the assay with γ-H2AX in HCT116 cells [1] (TRAIL 0.1 μg/mL, 3 hr), 45.8 RLU; in the assay with γ-H2AX in HCT116 cells [1] (TRAIL 0.1 μg/mL, 6 hr), 43.5 RLU. Also, the “γ-H2AX ELISA” value in the assay with γ-H2AX in HCT116 cells [2] (TRAIL 0.1 μg/mL, 0 hr) was 134 pM; with γ-H2AX in HCT116 cells [2] (TRAIL 0.1 μg/mL, 1 hr), 2764 pM; in the assay with γ-H2AX in HCT116 cells [2] (TRAIL 0.1 μg/mL, 3 hr), 9276 pM; with γ-H2AX in HCT116 cells [2] (TRAIL 0.1 μg/mL, 6 hr) it was 7703 pM. For the same molecule, the “γ-H2AX IFA” value with γ-H2AX in HCT116 cells [3] (TRAIL 0.1 μg/mL, 0 hr) is 2.0 RLU; in the assay with γ-H2AX in HCT116 cells [3] (TRAIL 0.1 μg/mL, 1 hr) it was 34.5 RLU; in the assay with γ-H2AX in HCT116 cells [3] (TRAIL 0.1 μg/mL, 3 hr), 72.2 RLU; in the assay with γ-H2AX in HCT116 cells [3] (TRAIL 0.1 μg/mL, 6 hr), 49.6 RLU.
